Here are results for four compounds from patent US10391070B2, “Compositions and methods for treating neurological diseases or injury” (MUSC FOUNDATION FOR RESEARCH DEVELOPMENT, priority 2012, dated 2019).

One data set concerns PTZ-induced seizures. Put plainly: Subcutaneous PTZ seizure threshold test. As to conditions: mice, 100 mg/kg i.p. pretreatment, PTZ 85 mg/kg s.c. It counts as in vivo, mouse. How it is done: Mouse studies were performed by NIH Anticonvulsant Screening Program at the National Institute of Neurological Disorders and Stroke (Stables and Kupferberg, 1997) according to the established NIH experimental procedures outlined below. Compounds were delivered into mice by i.p. injection at a dose of 100 mg/kg in sterile 5% DMSO, 95% Neobee (Josey et al., 2013). One of four methods for seizure induction was subsequently administered to mice at 0.25, 0.5, 1, 2 and 4 h after treatment with compound. (1) Subcutaneous PTZ seizure threshold test. PTZ was administered at a concentration of 85 mg/kg, into the loose fold of skin in the midline of the neck. […] (2) Maximal electroshock test. 60 Hz of 50 mA alternating current was delivered for 0.2 s by corneal electrodes. Mice were considered protected from seizures when the hindlimb tonic extensor was absent (White et al., 1995). (3) Minimal clonic seizure (6 Hz) test. 6 Hz of 32 mA or 44 mA alternating current was delivered for 3 s by corneal electrodes to elicit a psychomotor seizure. Mice were considered protected from seizures when the automatistic behaviors were absent (Barton et al., 2001). (4) Corneal kindled mouse model. Mice were kindled electrically with a 3 s stimulation, 8 mA, 60 Hz, and corneal electrodes to a criterion of 10 consecutive Stage 5 seizures (facial clonus and head nodding progressing to forelimb clonus, and finally rearing and falling accompanied by a generalized clonic seizure as described by Racine, 1972). Animals generally reach Stage 5 after twice daily stimulation for 8 days. With continued stimulation once a day, animals usually progressed to a reproducible Stage 5 after 10-14 additional days. At least 72 hours after the mice were kindled, the test substance was administered i.p. and each animal was given the electrical stimulus indicated above. […] Treated animals not displaying a Stage 4 or 5 seizure were considered protected.

A further data set deals with c-fos. Put plainly: c-fos gene expression in PTZ-treated zebrafish larvae. The class given is in vivo, zebrafish (Danio rerio). The following applies: 7 dpf zebrafish; for reduction of c-fos gene expression compared to PTZ alone: concentrations of Table 9. How it is done: Ten 7 dpf larvae were placed in 500 μL tank water in wells of a 48-well cell-culture plate and appropriate concentrations of drugs were added as in the behavior study (Table 9). After a 1 h pre-incubation period, PTZ was added to a final concentration of 15 mM in appropriate wells and larvae were incubated for a further 45 min. Fish were quickly euthanized by incubating the plate in an ice-water bath for 15 min. Fish were removed from each well and all liquid removed before freezing at −80° C. RNA was extracted using Trizol (Invitrogen) followed by the RNeasy Mini kit (Qiagen). Frozen embryos were homogenized in 800 μL Trizol using in-tube pestles and a motorized homogenizer. Following a 5-min incubation at room temperature, 200 μL chloroform was added and the samples were centrifuged at 12,000 g for 10 min. The aqueous phase was transferred to a new tube and 250 μL 100% ethanol was added and the samples mixed. This mixture was then transferred to the Qiagen minicolumn assembly and the protocol followed as described with the kit. Samples were eluted in 30 μL RNase free water and concentration was determined using the Nanodrop instrument (Thermo Fisher). cDNA was prepared using the RETROscript kit (Ambion) with 500 ng total RNA. cDNA was then diluted 1:1 with sterile dH2O and 2.5 μL of this cDNA was used in the QPCR reaction with SsoAdvanced SYBR Green Supermix (BioRad) and c-fos primers designed to span an intron-exon junction (c-fos F: […], SEQ ID NO:9; c-fos R: […], SEQ ID NO:10) ([…] each) in the BioRad CFX96 RealTime instrument. L13a and EF1a gene expression were used for normalization (Rahn et al., 2013). The following cycle conditions were used: 95° C./3 min, 40 cycles of 95° C./15 s, 62° C./30 s, followed by 95° C. 30 s and a dissociation curve. Samples were run in duplicate. The 2^−ΔΔCt method was used to quantify gene expression, whereby all gene Ct values were first normalized to Ct values of the geometric mean of the Ct of L13a and EF1a (Livak and Schmittgen, 2001). Treated samples were then normalized to the tank water control and converted to fold change.

Data set [1] can be described thus: Mouse neurotoxicity (rotorod). It counts as in vivo. The following applies: mice, 100 mg/kg i.p. The procedure: Using a 96-well plate, one zebrafish larva (7 dpf) was placed in each well in 100 μL of tank water. 100 μL of each compound was then added to each well for 12 animals (one row) for a final volume of 200 μL. One row of zebrafish larvae was used as DMSO only controls. […] Toxicity was also measured in the mouse model by the NIH Anticonvulsant Screening Program at the National Institute of Neurological Disorders and Stroke (Stables and Kupferberg, 1997), according to the established NIH experimental procedures. Compounds were delivered into mice by intraperitoneal (i.p.) injection at a dose of 100 mg/kg in sterile 5% DMSO, 95% Neobee (Josey et al., 2013). Acute toxicity was assessed by monitoring the animals for impaired neuromuscular function by placing treated mice on a rod rotating at 6 rpm. […].
(In general: Falling from the rotarod earlier than controls is read as motor impairment.)

Turning to `C#CCNC1=CC(=O)c2ccccc2C1=O` [Compound 2h, 2-(prop-2-yn-1-ylamino)naphthalene-1,4-dione], the “effect on PTZ-induced seizures” value in the data set on PTZ-induced seizures was “had no effect on PTZ-induced seizures in mice”. Besides, in the data set with c-fos, the “reduction of c-fos gene expression compared to PTZ alone” value is recorded as “about half”. Besides, in data set [1], the “animals displaying toxic effects/animals tested, 0.25 hr” value is on record as 0/12; the “animals displaying toxic effects/animals tested, 0.5 hr” value is given as 1/12; the “animals displaying toxic effects/animals tested, 1.0 hr” value is listed as 0/12; the “animals displaying toxic effects/animals tested, 2.0 hr” value is reported as 0/12. In data set [1], the “animals displaying toxic effects/animals tested, 4.0 hr” value was 0/12.

Consider `O=C1C=C(NCc2ccccc2)C(=O)c2ccccc21` [Compound 2j, 2-(benzylamino)naphthalene-1,4-dione], for which the “effect on PTZ-induced seizures” value with PTZ-induced seizures is reported as “had no effect on PTZ-induced seizures in mice”. Besides, the “reduction of c-fos gene expression compared to PTZ alone” value in the data set with c-fos is “about half”. In addition, in data set [1], the “animals displaying toxic effects/animals tested, 0.25 hr” value was 0/12; the “animals displaying toxic effects/animals tested, 0.5 hr” value is recorded as 0/12; the “animals displaying toxic effects/animals tested, 1.0 hr” value was 0/12; the “animals displaying toxic effects/animals tested, 2.0 hr” value is reported as 0/12. The “animals displaying toxic effects/animals tested, 4.0 hr” value in data set [1] is 0/12.

Regarding `O=C1C=C(NCc2cccc(Cl)c2)C(=O)c2ccccc21` [Compound 2q, 2-((3-chlorobenzyl)amino)naphthalene-1,4-dione], in the data set on PTZ-induced seizures, the “effect on PTZ-induced seizures” value is “had no effect on PTZ-induced seizures in mice”. Also, the “reduction of c-fos gene expression compared to PTZ alone” value in the data set with c-fos is listed as “about half”. Moreover, in data set [1], the “animals displaying toxic effects/animals tested, 0.25 hr” value is 0/12; the “animals displaying toxic effects/animals tested, 0.5 hr” value is 0/12; the “animals displaying toxic effects/animals tested, 1.0 hr” value was 0/12; the “animals displaying toxic effects/animals tested, 2.0 hr” value is on record as 0/12. For the same compound, the “animals displaying toxic effects/animals tested, 4.0 hr” value in data set [1] is reported as 0/12.

With `CC1=CC(=O)c2ccccc2C1=O` [VK3, menadione, reference compound], the “fold reduction of c-fos gene expression compared to PTZ alone” value with c-fos (6 μM pre-treatment) was “approximately 10 fold”.
